Reference: ChEMBL document CHEMBL1671696, “Deamplification of pfmdr1-containing amplicon on chromosome 5 in Plasmodium falciparum is associated with reduced resistance to artelinic acid in vitro” (Antimicrob Agents Chemother, 2010)
Values after ≈ are worked out from the molar mass of the structure shown.

Columns and labels:
[1] = test system: Plasmodium falciparum; assay: Ratio of IC90 for Plasmodium falciparum subclone 3A7 containing 4 copy number of pfmdr1-containing amplicon on chromosome 5 to IC90 for wild type Plasmodium falciparum W2; assay type: functional
[2] = test system: Plasmodium falciparum; assay: Antimicrobial activity against drug pre-treated Plasmodium falciparum clone W2AL80 containing 3 copy number of pfmdr1-containing amplicon on chromosome 5 assessed as growth inhibition by [3H]hypoxanthine incorporation assay; assay type: functional, organism-based
[3] = test system: Plasmodium falciparum; assay: Ratio of IC90 for Plasmodium falciparum subclone 3C20 containing 2 copy number of pfmdr1-containing amplicon on chromosome 5 to IC90 for wild type Plasmodium falciparum W2; assay type: functional
[4] = test system: Plasmodium falciparum; assay: Antimicrobial activity against Plasmodium falciparum subclone 3A1 containing 1 copy number of pfmdr1-containing amplicon on chromosome 5 assessed as growth inhibition by [3H]hypoxanthine incorporation assay; assay type: functional, organism-based
[5] = test system: Plasmodium falciparum; assay: Ratio of IC50 for Plasmodium falciparum subclone 3A12 containing 2 copy number of pfmdr1-containing amplicon on chromosome 5 to IC50 for wild type Plasmodium falciparum W2; assay type: functional
[6] = test system: Plasmodium falciparum; assay: Ratio of IC50 for Plasmodium falciparum subclone 3A7 containing 4 copy number of pfmdr1-containing amplicon on chromosome 5 to IC50 for wild type Plasmodium falciparum W2; assay type: functional
[7] = test system: Plasmodium falciparum; assay: Ratio of IC90 for Plasmodium falciparum subclone 3A26 containing 3 copy number of pfmdr1-containing amplicon on chromosome 5 to IC90 for wild type Plasmodium falciparum W2; assay type: functional
[8] = test system: Plasmodium falciparum; assay: Ratio of IC90 for Plasmodium falciparum subclone 3A1 containing 1 copy number of pfmdr1-containing amplicon on chromosome 5 to IC90 for wild type Plasmodium falciparum W2; assay type: functional
[9] = test system: Plasmodium falciparum; assay: Antimicrobial activity against Plasmodium falciparum subclone 3A12 containing 2 copy number of pfmdr1-containing amplicon on chromosome 5 assessed as growth inhibition by [3H]hypoxanthine incorporation assay; assay type: functional, organism-based
[10] = test system: Plasmodium falciparum; assay: Antimicrobial activity against Plasmodium falciparum subclone 3A26 containing 3 copy number of pfmdr1-containing amplicon on chromosome 5 assessed as growth inhibition by [3H]hypoxanthine incorporation assay; assay type: functional, organism-based
[11] = test system: Plasmodium falciparum; assay: Ratio of IC90 for Plasmodium falciparum subclone 3A17 containing 2 copy number of pfmdr1-containing amplicon on chromosome 5 to IC90 for wild type Plasmodium falciparum W2; assay type: functional
[12] = test system: Plasmodium falciparum; assay: Ratio of IC90 for Plasmodium falciparum subclone 3A3 containing 1 copy number of pfmdr1-containing amplicon on chromosome 5 to IC90 for wild type Plasmodium falciparum W2; assay type: functional
[13] = test system: Plasmodium falciparum; assay: Ratio of IC90 for Plasmodium falciparum subclone 3A12 containing 2 copy number of pfmdr1-containing amplicon on chromosome 5 to IC90 for wild type Plasmodium falciparum W2; assay type: functional
[14] = test system: Plasmodium falciparum; assay: Ratio of IC50 for Plasmodium falciparum subclone 3A3 containing 1 copy number of pfmdr1-containing amplicon on chromosome 5 to IC50 for wild type Plasmodium falciparum W2; assay type: functional
[15] = test system: Plasmodium falciparum; assay: Ratio of IC50 for Plasmodium falciparum subclone 3A17 containing 2 copy number of pfmdr1-containing amplicon on chromosome 5 to IC50 for wild type Plasmodium falciparum W2; assay type: functional
[16] = test system: Plasmodium falciparum; assay: Ratio of IC50 for Plasmodium falciparum subclone 3C20 containing 2 copy number of pfmdr1-containing amplicon on chromosome 5 to IC50 for wild type Plasmodium falciparum W2; assay type: functional
[17] = test system: Plasmodium falciparum; assay: Ratio of IC50 for Plasmodium falciparum subclone 3A26 containing 3 copy number of pfmdr1-containing amplicon on chromosome 5 to IC50 for wild type Plasmodium falciparum W2; assay type: functional
[18] = test system: Plasmodium falciparum; assay: Ratio of IC90 for Plasmodium falciparum subclone 3A8 containing 3 copy number of pfmdr1-containing amplicon on chromosome 5 to IC90 for wild type Plasmodium falciparum W2; assay type: functional
[19] = test system: Plasmodium falciparum; assay: Antimicrobial activity against Plasmodium falciparum subclone 3C18 containing 3 copy number of pfmdr1-containing amplicon on chromosome 5 assessed as growth inhibition by [3H]hypoxanthine incorporation assay; assay type: functional, organism-based
[20] = test system: Plasmodium falciparum; assay: Ratio of IC50 for Plasmodium falciparum subclone 3A1 containing 1 copy number of pfmdr1-containing amplicon on chromosome 5 to IC50 for wild type Plasmodium falciparum W2; assay type: functional
[21] = test system: Plasmodium falciparum; assay: Ratio of IC50 for Plasmodium falciparum clone W2AL80 containing 3 copy number of pfmdr1-containing amplicon on chromosome 5 to IC50 for wild type Plasmodium falciparum W2; assay type: functional
[22] = test system: Plasmodium falciparum; assay: Ratio of IC50 for Plasmodium falciparum subclone 3A8 containing 3 copy number of pfmdr1-containing amplicon on chromosome 5 to IC50 for wild type Plasmodium falciparum W2; assay type: functional
[23] = test system: Plasmodium falciparum; assay: Ratio of IC90 for Plasmodium falciparum subclone 3C18 containing 3 copy number of pfmdr1-containing amplicon on chromosome 5 to IC90 for wild type Plasmodium falciparum W2; assay type: functional
[24] = test system: Plasmodium falciparum; assay: Ratio of IC50 for Plasmodium falciparum subclone 3C18 containing 3 copy number of pfmdr1-containing amplicon on chromosome 5 to IC50 for wild type Plasmodium falciparum W2; assay type: functional
[25] = test system: Plasmodium falciparum; assay: Antimicrobial activity against Plasmodium falciparum subclone 3C20 containing 2 copy number of pfmdr1-containing amplicon on chromosome 5 assessed as growth inhibition by [3H]hypoxanthine incorporation assay; assay type: functional, organism-based
[26] = test system: Plasmodium falciparum; assay: Ratio of IC90 for Plasmodium falciparum subclone 3C1 containing 3 copy number of pfmdr1-containing amplicon on chromosome 5 to IC90 for wild type Plasmodium falciparum W2; assay type: functional
[27] = test system: Plasmodium falciparum; assay: Ratio of IC50 for Plasmodium falciparum subclone 3C1 containing 3 copy number of pfmdr1-containing amplicon on chromosome 5 to IC50 for wild type Plasmodium falciparum W2; assay type: functional
[28] = test system: Plasmodium falciparum; assay: Antimicrobial activity against Plasmodium falciparum subclone 3A8 containing 3 copy number of pfmdr1-containing amplicon on chromosome 5 assessed as growth inhibition by [3H]hypoxanthine incorporation assay; assay type: functional, organism-based
[29] = test system: Plasmodium falciparum; assay: Antimicrobial activity against Plasmodium falciparum subclone 3A7 containing 4 copy number of pfmdr1-containing amplicon on chromosome 5 assessed as growth inhibition by [3H]hypoxanthine incorporation assay; assay type: functional, organism-based
[30] = test system: Plasmodium falciparum; assay: Antimicrobial activity against Plasmodium falciparum subclone 3A17 containing 2 copy number of pfmdr1-containing amplicon on chromosome 5 assessed as growth inhibition by [3H]hypoxanthine incorporation assay; assay type: functional, organism-based
[31] = test system: Plasmodium falciparum; assay: Antimicrobial activity against compound-sensitive Plasmodium falciparum clone W2 assessed as growth inhibition by [3H]hypoxanthine incorporation assay; assay type: functional, organism-based
[32] = test system: Plasmodium falciparum; assay: Ratio of IC50 for Plasmodium falciparum subclone 3C10 containing 2 copy number of pfmdr1-containing amplicon on chromosome 5 to IC50 for wild type Plasmodium falciparum W2; assay type: functional
[33] = test system: Plasmodium falciparum; assay: Antimicrobial activity against Plasmodium falciparum subclone 3C10 containing 2 copy number of pfmdr1-containing amplicon on chromosome 5 assessed as growth inhibition by [3H]hypoxanthine incorporation assay; assay type: functional, organism-based
[34] = test system: Plasmodium falciparum; assay: Ratio of IC90 for Plasmodium falciparum clone W2AL80 containing 3 copy number of pfmdr1-containing amplicon on chromosome 5 to IC90 for wild type Plasmodium falciparum W2; assay type: functional
[35] = test system: Plasmodium falciparum; assay: Antimicrobial activity against Plasmodium falciparum subclone 3C1 containing 3 copy number of pfmdr1-containing amplicon on chromosome 5 assessed as growth inhibition by [3H]hypoxanthine incorporation assay; assay type: functional, organism-based
[36] = test system: Plasmodium falciparum; assay: Antimicrobial activity against Plasmodium falciparum subclone 3A3 containing 1 copy number of pfmdr1-containing amplicon on chromosome 5 assessed as growth inhibition by [3H]hypoxanthine incorporation assay; assay type: functional, organism-based
[37] = test system: Plasmodium falciparum; assay: Ratio of IC90 for Plasmodium falciparum subclone 3C10 containing 2 copy number of pfmdr1-containing amplicon on chromosome 5 to IC90 for wild type Plasmodium falciparum W2; assay type: functional

C[C@@H]1[C@H](OCc2ccc(C(=O)O)cc2)O[C@@H]2O[C@@]3(C)CC[C@@H]4[C@@H](C)CC[C@@H]1[C@]24OO3 [ARTELINIC ACID]
Ratio [1]: 17 | IC50 [2]: 0.0488 µg/mL (≈ 0.117 µM) | IC90 [2]: 0.123 µg/mL (≈ 0.295 µM) | Ratio [3]: 14.7 | IC50 [4]: 0.0294 µg/mL (≈ 0.0703 µM) | IC90 [4]: 0.0531 µg/mL (≈ 0.127 µM) | Ratio IC50 [5]: 11 | Ratio IC50 [6]: 12.1 | Ratio [7]: 20.7 | Ratio [8]: 9.8 | IC50 [9]: 0.0423 µg/mL (≈ 0.101 µM) | IC90 [9]: 0.114 µg/mL (≈ 0.271 µM) | IC50 [10]: 0.052 µg/mL (≈ 0.124 µM) | IC90 [10]: 0.113 µg/mL (≈ 0.269 µM) | Ratio [11]: 15.9 | Ratio [12]: 9.3 | Ratio [13]: 20.9 | Ratio IC50 [14]: 8.8 | Ratio IC50 [15]: 12.5 | Ratio IC50 [16]: 11 | Ratio IC50 [17]: 13.5 | Ratio [18]: 22 | IC50 [19]: 0.0814 µg/mL (≈ 0.194 µM) | IC90 [19]: 0.111 µg/mL (≈ 0.265 µM) | Ratio IC50 [20]: 7.6 | Ratio IC50 [21]: 12.7 | Ratio IC50 [22]: 16.3 | Ratio [23]: 20.4 | Ratio IC50 [24]: 21.1 | IC50 [25]: 0.0424 µg/mL (≈ 0.101 µM) | IC90 [25]: 0.08 µg/mL (≈ 0.191 µM) | Ratio [26]: 18.5 | Ratio IC50 [27]: 18.9 | IC50 [28]: 0.0629 µg/mL (≈ 0.15 µM) | IC90 [28]: 0.12 µg/mL (≈ 0.286 µM) | IC50 [29]: 0.0467 µg/mL (≈ 0.112 µM) | IC90 [29]: 0.0924 µg/mL (≈ 0.221 µM) | IC50 [30]: 0.0481 µg/mL (≈ 0.115 µM) | IC90 [30]: 0.0867 µg/mL (≈ 0.207 µM) | IC50 [31]: 0.00386 µg/mL (≈ 0.00922 µM) | IC90 [31]: 0.00544 µg/mL (≈ 0.013 µM) | Ratio IC50 [32]: 10.2 | IC50 [33]: 0.0395 µg/mL (≈ 0.0945 µM) | IC90 [33]: 0.0936 µg/mL (≈ 0.224 µM) | Ratio [34]: 22.7 | IC50 [35]: 0.0731 µg/mL (≈ 0.175 µM) | IC90 [35]: 0.1 µg/mL (≈ 0.24 µM) | IC50 [36]: 0.034 µg/mL (≈ 0.0813 µM) | IC90 [36]: 0.0504 µg/mL (≈ 0.12 µM) | Ratio [37]: 17.2

OC(c1cc(C(F)(F)F)nc2c(C(F)(F)F)cccc12)C1CCCCN1 (stereo unspecified) [MEFLOQUINE]
Ratio [1]: 5.4 | IC90 [2]: 0.104 µg/mL (≈ 0.274 µM) | Ratio [3]: 5.7 | IC50 [4]: 0.00738 µg/mL (≈ 0.0195 µM) | IC90 [4]: 0.0261 µg/mL (≈ 0.069 µM) | Ratio IC50 [5]: 1.7 | Ratio IC50 [6]: 3.8 | Ratio [7]: 5.2 | Ratio [8]: 1.8 | IC90 [9]: 0.0519 µg/mL (≈ 0.137 µM) | IC50 [10]: 0.0191 µg/mL (≈ 0.0504 µM) | IC90 [10]: 0.075 µg/mL (≈ 0.198 µM) | Ratio [11]: 6.6 | Ratio [12]: 2.8 | Ratio [13]: 3.6 | Ratio IC50 [14]: 1.7 | Ratio IC50 [15]: 2.6 | Ratio IC50 [16]: 2.2 | Ratio IC50 [17]: 2.5 | Ratio [18]: 5.2 | IC90 [19]: 0.102 µg/mL (≈ 0.269 µM) | Ratio IC50 [20]: 1 | Ratio IC50 [21]: 2.3 | Ratio IC50 [22]: 2.6 | Ratio [23]: 7 | Ratio IC50 [24]: 2.9 | IC90 [25]: 0.0833 µg/mL (≈ 0.22 µM) | Ratio [26]: 5.9 | Ratio IC50 [27]: 3.1 | IC90 [28]: 0.0756 µg/mL (≈ 0.2 µM) | IC90 [29]: 0.0778 µg/mL (≈ 0.206 µM) | IC50 [30]: 0.019 µg/mL (≈ 0.0501 µM) | IC90 [30]: 0.0954 µg/mL (≈ 0.252 µM) | IC50 [31]: 0.00772 µg/mL (≈ 0.0204 µM) | IC90 [31]: 0.0145 µg/mL (≈ 0.0383 µM) | Ratio IC50 [32]: 3 | IC90 [33]: 0.0821 µg/mL (≈ 0.217 µM) | Ratio [34]: 7.2 | IC90 [35]: 0.0849 µg/mL (≈ 0.224 µM) | IC90 [36]: 0.0406 µg/mL (≈ 0.107 µM) | Ratio [37]: 5.9
